“And” between values parts separate entries of the source, which are not always exact repeats. Equal entries are not always repeated. Toxic doses and inconclusive results are not listed.
Tested on: CD2F1 mice, L1210 leukemia ip, survival T/C
Assay: NCI In Vivo Anticancer Drug Screen. Data for tumor model L1210 Leukemia (intraperitoneal) in CD2F1 (CDF1) mice
Conditions: endpoint: mean survival time, higher = longer survival
Method in brief: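 Read-out first: treated-group measurement over vehicle-control measurement, expressed as a ratio. Animals bore a transplanted tumor line and were dosed with compound or vehicle.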

[1] = dose: 100.0 mg/kg/injection, schedule: Q01DX009 (ip), vehicle: saline
[2] = dose: 200.0 mg/kg/injection, schedule: Q01DX009 (ip), vehicle: saline
[3] = dose: 400.0 mg/kg/injection, schedule: Q01DX009 (ip), vehicle: saline
[4] = dose: 100.0 mg/kg/injection, schedule: Q01DX009 (ip), vehicle: saline with Tween-80
[5] = dose: 200.0 mg/kg/injection, schedule: Q01DX009 (ip), vehicle: saline with Tween-80
[6] = dose: 400.0 mg/kg/injection, schedule: Q01DX009 (ip), vehicle: saline with Tween-80
[7] = dose: 100.0 mg/kg/injection, schedule: Q04DX003 (ip), vehicle: saline with Tween-80
[8] = dose: 200.0 mg/kg/injection, schedule: Q04DX003 (ip), vehicle: saline with Tween-80
[9] = dose: 50.0 mg/kg/injection, schedule: Q01DX009 (ip), vehicle: saline with Tween-80
[10] = dose: 100.0 mg/kg/injection, schedule: Q04DX003 (ip), vehicle: saline
[11] = dose: 200.0 mg/kg/injection, schedule: Q04DX003 (ip), vehicle: saline
[12] = dose: 400.0 mg/kg/injection, schedule: Q04DX003 (ip), vehicle: saline

**Q.** Which T/C (dose: 100.0 mg/kg/injection, schedule: Q01DX001 (ip), vehicle: Klucel (hydroxypropylcellulose) (HPC)) does the source give for `CCC1([N+](=O)[O-])COC(c2ccc(Cl)cc2)OC1` (centres undefined) here?
**A.** 104 % of control

**Q.** What about the T/C (dose: 200.0 mg/kg/injection, schedule: Q01DX001 (ip), vehicle: Klucel (hydroxypropylcellulose) (HPC)) of the same compound?
**A.** 86 % of control

**Q.** What about the T/C (dose: 400.0 mg/kg/injection, schedule: Q01DX001 (ip), vehicle: Klucel (hydroxypropylcellulose) (HPC)) of the same compound?
**A.** 111 % of control

**Q.** Which results are given for `CN(C)CC1CCCCCC(Br)C1O` (centres undefined)?
**A.** T/C (dose: 75.0 mg/kg/injection, schedule: Q01DX001 (ip), vehicle: saline): 100 % of control; T/C (dose: 150.0 mg/kg/injection, schedule: Q01DX001 (ip), vehicle: saline): 94 % of control

**Q.** With `CC1(C)OC(=O)N(CO)C1=O` as the compound, how does the T/C (dose: 12.5 mg/kg/injection, schedule: Q01DX009 (ip), vehicle: saline) read?
**A.** 100 % of control and 103 % of control

**Q.** And the T/C (dose: 25.0 mg/kg/injection, schedule: Q01DX009 (ip), vehicle: saline)?
**A.** 97 % of control and 102 % of control

**Q.** What about the T/C (dose: 50.0 mg/kg/injection, schedule: Q01DX009 (ip), vehicle: saline) of the same compound?
**A.** 100 % of control and 102 % of control

**Q.** What about the T/C [1] of the same compound?
**A.** 114 % of control and 111 % of control

**Q.** And the T/C [2]?
**A.** 120 % of control and 111 % of control

**Q.** And the T/C [3]?
**A.** 91 % of control and 97 % of control

**Q.** Which results are given for `CCOC(=O)C([NH-])C([NH-])C(=O)OCC.[Cl][Pt+2][Cl]` (centres undefined)?
**A.** T/C (dose: 12.5 mg/kg/injection, schedule: Q04DX003 (ip), vehicle: saline with Tween-80): 186 % of control; T/C (dose: 25.0 mg/kg/injection, schedule: Q04DX003 (ip), vehicle: saline with Tween-80): 195 % of control

**Q.** `Nc1nnnn1-c1cccc(Cl)c1` was tested. Which T/C [4] did it give?
**A.** 96 % of control

**Q.** And the T/C [5]?
**A.** 102 % of control

**Q.** And the T/C [6]?
**A.** 106 % of control

**Q.** Which T/C (dose: 100.0 mg/kg/injection, schedule: Q01DX001 (ip), vehicle: saline) does the source give for `CCOCC(C)(CO)CC(C)CO` (centres undefined) here?
**A.** 101 % of control

**Q.** And the T/C (dose: 200.0 mg/kg/injection, schedule: Q01DX001 (ip), vehicle: saline)?
**A.** 104 % of control

**Q.** And the T/C (dose: 400.0 mg/kg/injection, schedule: Q01DX001 (ip), vehicle: saline)?
**A.** 103 % of control

**Q.** What does the source list for `Cc1c(-c2ccc3c(c2)OCO3)no[n+]1[O-]`?
**A.** T/C [7]: 91 % of control; T/C [8]: 98 % of control; T/C (dose: 400.0 mg/kg/injection, schedule: Q04DX003 (ip), vehicle: saline with Tween-80): 88 % of control

**Q.** With `O=[N+]([O-])O.[Ga]` as the compound, how does the T/C (dose: 50.0 mg/kg/injection, schedule: Q01DX Z (ip), vehicle: saline) read?
**A.** 119 % of control

**Q.** With `Cc1ccc(C(=O)c2ccccc2Cl)cc1` as the compound, how does the T/C (dose: 15.0 mg/kg/injection, schedule: Q01DX009 (ip), vehicle: Klucel (hydroxypropylcellulose) (HPC)) read?
**A.** 91 % of control

**Q.** What about the T/C (dose: 30.0 mg/kg/injection, schedule: Q01DX009 (ip), vehicle: Klucel (hydroxypropylcellulose) (HPC)) of the same compound?
**A.** 87 % of control

**Q.** What about the T/C (dose: 60.0 mg/kg/injection, schedule: Q01DX009 (ip), vehicle: Klucel (hydroxypropylcellulose) (HPC)) of the same compound?
**A.** 87 % of control

**Q.** Which T/C [9] does the source give for `O=C(Nc1nc2c(ccc3ccccc32)s1)Nc1ccccc1F` here?
**A.** 94 % of control

**Q.** What about the T/C [4] of the same compound?
**A.** 97 % of control

**Q.** What about the T/C [5] of the same compound?
**A.** 105 % of control

**Q.** Which T/C (dose: 100.0 mg/kg/injection, schedule: Q04DX003 (ip), vehicle: Klucel (hydroxypropylcellulose) (HPC)) does the source give for `CC(=O)Nc1ccc(C)cc1C` here?
**A.** 94 % of control

**Q.** And the T/C (dose: 200.0 mg/kg/injection, schedule: Q04DX003 (ip), vehicle: Klucel (hydroxypropylcellulose) (HPC))?
**A.** 103 % of control

**Q.** What about the T/C (dose: 400.0 mg/kg/injection, schedule: Q04DX003 (ip), vehicle: Klucel (hydroxypropylcellulose) (HPC)) of the same compound?
**A.** 97 % of control

**Q.** What does the source list for `CSc1nc(N)c2c(n1)nc(N(C)C)n2O`?
**A.** T/C (dose: 12.5 mg/kg/injection, schedule: Q01DX005 (ip), vehicle: water): 106 % of control; T/C (dose: 25.0 mg/kg/injection, schedule: Q01DX005 (ip), vehicle: water): 102 % of control; T/C (dose: 50.0 mg/kg/injection, schedule: Q01DX005 (ip), vehicle: water): 93 % of control; T/C (dose: 100.0 mg/kg/injection, schedule: Q01DX005 (ip), vehicle: water): 95 % of control; T/C (dose: 200.0 mg/kg/injection, schedule: Q01DX005 (ip), vehicle: water): 97 % of control

**Q.** `O=C(O)CN(CCO)CCO` was tested. Which T/C [10] did it give?
**A.** 100 % of control

**Q.** What about the T/C [11] of the same compound?
**A.** 102 % of control

**Q.** What about the T/C [12] of the same compound?
**A.** 102 % of control

**Q.** Which T/C [7] does the source give for `CON(C)C(=O)N1c2ccccc2Sc2ccccc21` here?
**A.** 87 % of control

**Q.** And the T/C [8]?
**A.** 87 % of control

**Q.** How did the T/C (dose: 12.5 mg/kg/injection, schedule: Q01DX009 (ip), vehicle: saline with Tween-80) turn out when `CC(=O)OCC1(C)NC(=O)c2ccccc2O1` (centres undefined) was run?
**A.** 93 % of control and 112 % of control

**Q.** And the T/C (dose: 25.0 mg/kg/injection, schedule: Q01DX009 (ip), vehicle: saline with Tween-80)?
**A.** 93 % of control and 101 % of control

**Q.** What about the T/C [9] of the same compound?
**A.** 98 % of control and 103 % of control

**Q.** And the T/C [4]?
**A.** 118 % of control and 100 % of control

**Q.** And the T/C [5]?
**A.** 95 % of control and 106 % of control

**Q.** And the T/C [6]?
**A.** 115 % of control

**Q.** With `CC(C)(CO)NC(=O)CCO` as the compound, how does the T/C [1] read?
**A.** 101 % of control

**Q.** And the T/C [10]?
**A.** 97 % of control

**Q.** And the T/C [2]?
**A.** 103 % of control

**Q.** What about the T/C [11] of the same compound?
**A.** 98 % of control

**Q.** And the T/C [3]?
**A.** 104 % of control

**Q.** And the T/C [12]?
**A.** 101 % of control
